These results are taken from patent publication US8481551B2, “Gyrase and topoisomerase IV inhibitors” (Vertex Pharmaceuticals Incorporated, priority 2011, dated 2013).

The subject of data set [1] is Mycobacterium tuberculosis. The experiment in a line: Mycobacterium tuberculosis serum shift MIC assay (Protocol 5). It counts as cell-based. As to conditions: ATCC 35801 / ERDMAN. From the text: Protocol 5. Protocol for Mycobacterium tuberculosis Serum Shift MIC Assay
Media Prep: • 1. […] It was important that all media and supplements were sterilized prior to MICs. • 2. Prepared all media below and inoculated as described in next section. Tested all compounds against Mtb using each media. • a. […] 7H9+0.2% glycerol+2 g/L dextrose+0.85 g/L NaCl+0.003 g/L catalase (0% FBS). • c. 2×7H9+0.2% glycerol+2 g/L dextrose+0.85 g/L NaCl+0.003 g/L catalase combined with equal volume Fetal Bovine Serum (50% FBS).
Inoculum Prep: • 1. […] Typically plates were two to three weeks of age when used for this assay due to the slow growth of this organism in culture. • 2. Vortexed well, then sonicated in water bath for 30 sec providing a suspension of ˜10^8 cells/ml. […] Prepared inoculum in each of the three media formulations by diluting the BBL Prompt suspension 1/200 (for example: transferred 0.2 ml of cells to 40 ml of medium) to obtain a starting cell density of ˜10^6 cells/ml. • 4.
After 24 hours the fluorescence of each well was measured at Excitation 492 nm, Emission 595 nm.
Percent inhibition by a given compound was calculated as follows: Percent inhibition=100−([well fluorescence-average background fluorescence]/[DMSO control−average background fluorescence]×100).

A further data set deals with Haemophilus influenzae. The data set is described as follows: Gyrase MIC against Gram negatives, microdilution broth method (Protocol 2). It counts as cell-based. The settings on record: for MIC90 / MIC Range: Haemophilus influenzae, 55 isolates tested. In general terms: In broth dilution the organism is exposed to a series of concentrations in liquid medium.
A further data set deals with Bacteroides fragilis. The data set is described as follows: Gyrase MIC, agar dilution method (Protocol 3). Type of data set: cell-based. The settings on record: 25 isolates tested.
The subject of another data set is Escherichia coli. The experiment in a line: Gyrase MIC against Gram negatives, microdilution broth method (Protocol 2). Type of data set: cell-based. The settings on record: for MIC90: 12 isolates tested.
In a further data set the test system is Enterococcus faecalis. The data set is described as follows: Gyrase MIC, microdilution broth method (Protocol 1). As to conditions: for MIC: ATCC29212.
For the next data set, the system named is Clostridium difficile. The experiment in a line: Gyrase MIC, agar dilution method (Protocol 3). Type of data set: cell-based. As to conditions: for MIC / MIC90: Clostridioides difficile; for MIC: ATCCBAA1382, Clostridium difficile ATCC BAA-1382; for MIC90 / MIC Range: Clostridium difficile, 16 isolates tested. On the technique in general: In agar dilution, organisms are placed on agar that contains the substance at set levels.

The test system of the next data set is Enterobacter cloacae. The data set is described as follows: Gyrase MIC against Gram negatives, microdilution broth method (Protocol 2). The settings on record: 12 isolates tested. It counts as cell-based.
The next data set deals with Enterococcus faecium. The data set is described as follows: Gyrase MIC, microdilution broth method (Protocol 1). The settings on record: for MIC Range: 33 isolates tested.
The nature of data set [2]: Pharmacokinetics, monkey oral study. It counts as in vivo, cynomolgus monkeys. The settings on record: for AUC: male, cynomolgus monkey, plasma, po, monkey plasma, label = analyte. From the text:
Pharmacokinetic Data Analysis.
Statistical Data Analysis.
Plasma concentration vs. time data was subjected to noncompartmental pharmacokinetic (PK) analysis.

Setting [3] is: M. tuberculosis Erdman ATCC 35801, read-out: MIC.
The mark [4] stands for this setting: M. tuberculosis Erdman ATCC 35801 with Mouse Serum.
The mark [5] stands for this setting: ATCC49247, Haemophilus influenzae ATCC 49247.
Setting [6] is: Haemophilus influenzae Rd0894 (AcrA-).
Setting [7] is: ATCC25922, Escherichia coli ATCC 25922.
Setting [8] is: ATCC49624, Enterococcus faecium ATCC 49624, Protocol 1.
[9] abbreviates: ATCC49624, Enterococcus faecium ATCC 49624 with Laked Horse Blood, Protocol 1.
[10] abbreviates: 100 mg/kg, Compound W dosed PO 100 mg/kg in 0.5% MC, read-out: AUCextrap.

Counter-ions that a name gives are not always drawn. Like-named read-outs stand apart in the source and are kept apart here.

Regarding `CCNC(=O)Nc1nc2cc(-c3cnc(C(C)(C)O)nc3)cc([C@H]3CCCO3)c2[nH]1` [Compound 13, methanesulfonic acid salt of 1-ethyl-3-[5-[2-(1-hydroxy-1-methyl-ethyl)pyrimidin-5-yl]-7-[(2R)-tetrahydrofuran-2-yl]-1H-benzimidazol-2-yl]urea], the MIC in [1] (setting [3]) is 0.045 µg/mL; in data set [1] (setting [4]), 2 µg/mL; in the data set with Haemophilus influenzae (setting [5]), 1 µg/mL; against Haemophilus influenzae (setting [6]), 0.14 µg/mL; against Escherichia coli (setting [7]) it was 16 µg/mL; in the data set on Escherichia coli (Escherichia coli AG100 WT), more than 16 µg/mL. Moreover, the MIC was 0.11 µg/mL in the data set with Escherichia coli (Escherichia coli AG100 tolC); more than 16 µg/mL against Escherichia coli (Escherichia coli CHE30); 0.5 µg/mL in the data set with Escherichia coli (Escherichia coli CHE30 tolC); more than 16 µg/mL against Escherichia coli (Escherichia coli MC4100); 1 µg/mL with Escherichia coli (Escherichia coli MC4100 tolC); 0.081 µg/mL in the data set with Enterococcus faecalis. For the same molecule, the MIC against Clostridium difficile amounted to 1 µg/mL; against Enterococcus faecium (setting [8]) it was 0.25 µg/mL; with Enterococcus faecium (setting [9]) it was 0.39 µg/mL. The MIC90 is 2 µg/mL with Haemophilus influenzae; more than 16 µg/mL against Bacteroides fragilis; more than 8 µg/mL against Escherichia coli; 0.25 µg/mL with Enterococcus faecalis; 1 µg/mL in the data set with Clostridium difficile; more than 8 µg/mL in the data set on Enterobacter cloacae. Also, the MIC90 against Enterococcus faecium was 0.5 µg/mL. Further, the “MIC Range” value against Haemophilus influenzae lay in the range of 0.25 to 8 µg/mL; with Enterococcus faecalis (34 isolates tested, Protocol 1), 0.03 to 0.25 µg/mL; against Clostridium difficile, 0.5 to 16 µg/mL; against Enterococcus faecium (Protocol 1), 0.12 to 0.5 µg/mL.
For `CCNC(=O)Nc1nc2cc(-c3cnc(C(C)(C)O)nc3)c(F)c([C@H]3CCCO3)c2[nH]1` [Compound 23, 1-ethyl-3-[6-fluoro-5-[2-(1-hydroxy-1-methyl-ethyl)pyrimidin-5-yl]-7-[(2R)-tetrahydrofuran-2-yl]-1H-benzimidazol-2-yl]urea], the AUC stood at 24800 ng·h/mL in [2] (30 mg/kg, Compound W dosed PO 30 mg/kg in 0.5% MC, read-out: AUCextrap); 76900 ng·h/mL in data set [2] (setting [10]); 155000 ng·h/mL in data set [2] (300 mg/kg, Compound W dosed PO 300 mg/kg in 0.5% MC, read-out: AUCextrap).
Take `CCNC(=O)Nc1nc2cc(-c3cnc(C(C)(C)O)nc3)c(F)c([C@H]3CCCO3)c2[nH]1` [Compound 23A, methanesulfonic acid salt of 1-ethyl-3-[6-fluoro-5-[2-(1-hydroxy-1-methyl-ethyl)pyrimidin-5-yl]-7-[(2R)-tetrahydrofuran-2-yl]-1H-benzimidazol-2-yl]urea]: the MIC turned out to be 0.03 µg/mL in data set [1] (setting [3]); 0.5 µg/mL in data set [1] (setting [4]); 0.5 µg/mL against Haemophilus influenzae (setting [5]); 0.041 µg/mL in the data set with Haemophilus influenzae (setting [6]); 12 µg/mL against Escherichia coli (setting [7]); 4 µg/mL in the data set on Escherichia coli (Escherichia coli AG100 WT). For the same molecule, the MIC against Escherichia coli (Escherichia coli AG100 tolC) was 0.063 µg/mL; against Escherichia coli (Escherichia coli CHE30), 8 µg/mL; against Escherichia coli (Escherichia coli CHE30 tolC) it was 0.125 µg/mL; in the data set with Escherichia coli (Escherichia coli MC4100), more than 16 µg/mL; against Escherichia coli (Escherichia coli MC4100 tolC), 0.25 µg/mL; against Clostridium difficile it was 0.38 µg/mL. In addition, the MIC with Enterococcus faecium (setting [8]) and against Enterococcus faecium (setting [9]) was 0.11 µg/mL throughout. Besides, the MIC90 against Haemophilus influenzae was 1 µg/mL; with Bacteroides fragilis, 16 µg/mL; with Escherichia coli it was more than 8 µg/mL; with Clostridium difficile it was 0.25 µg/mL; with Enterobacter cloacae it was more than 8 µg/mL; in the data set on Enterococcus faecium, 0.12 µg/mL. For the same molecule, the “MIC Range” value against Haemophilus influenzae is 0.06-2^ μg/ml; against Bacteroides fragilis, 1 to 16 µg/mL; in the data set with Clostridium difficile, 0.06-4^ μg/ml; against Enterococcus faecium (Protocol 1), 0.003 to 0.25 µg/mL.
`CCNC(=O)Nc1nc2cc(-c3cnc(C(C)(C)OP(=O)([O-])[O-])nc3)c(F)c([C@H]3CCCO3)c2[nH]1.[Na+].[Na+]` [Compound W, disodium (R)-2-(5-(2-(3-ethylureido)-6-fluoro-7-(tetrahydrofuran-2-yl)-1H-benzo[d]imidazol-5-yl)pyrimidin-2-yl)propan-2-yl phosphate]: the MIC in the data set on Haemophilus influenzae (setting [6]) was 0.25 µg/mL; against Escherichia coli (Escherichia coli AG100 WT) it was more than 16 µg/mL; in the data set with Enterococcus faecalis, 1 µg/mL. In addition, the “conversion in vivo into Compound 23” value in data set [2] (in at least rats, dogs and monkeys (all pharmacokinetic studies)) is reported as “converted in vivo into Compound 23”. Also, the AUC in data set [2] (30 mg/kg, Compound W dosed PO 30 mg/kg in 0.5% MC, read-out: AUC) stood at 45.3 ng·h/mL; in data set [2] (100 mg/kg, Compound W dosed PO 100 mg/kg in 0.5% MC, read-out: AUC) it was 432 ng·h/mL; in data set [2] (setting [10]), 437 ng·h/mL; in data set [2] (300 mg/kg, Compound W dosed PO 300 mg/kg in 0.5% MC, read-out: AUC), 3690 ng·h/mL.
